Experimental data from US9421204B2, “Oligomer modified diaromatic substituted compounds” (priority 2010, dated 2016).
Where two headings read alike, the source gives them in different places.

Assays:
[1] = Caco-2 permeability characterization (plate certification); settings: human; for Papp A→B: Caco-2, (A-to-B) Papp; for Papp B→A: Caco-2, (B-to-A) Papp; for efflux ratio: Caco-2, Efflux Ratio
Procedure: The objective of this study was to determine the bidirectional Caco-2 permeability of test compounds. Caco-2 monolayers were grown to confluence on collagen-coated, microporous, polycarbonate membranes in 12-well Costar Transwell® plates. Details of the plates and their certification are shown below. The permeability assay buffer for the donor chambers was Hanks Balanced Salt Solution containing 10 mM HEPES and 15 mM glucose (HBSSg) at a pH of 7.4. The buffer in the receiver chambers also contained 1% bovine serum albumin (BSA). The dosing solution concentrations were 10 μM in the assay buffer. Cell monolayers were dosed on the apical side (A to-B) or basolateral side (B-to-A) and incubated at 37° C. with 5% CO2 in a humidified incubator. After 2 hours, aliquots were taken from the receiver and donor chambers. Each determination was performed in duplicate. The lucifer yellow flux was also measured for each monolayer to ensure no damage was inflicted to the cell monolayers during the flux period. All samples were assayed by LC/MS/MS using electrospray ionization.

[2] = Toxicity XTT in CEM-SS cells (cytoprotection assay); format: cell-based; settings: human, CEM-SS cells, XTT; read-out: CEM-SS TC50
Procedure: (§1) Cell Preparation—CEM-SS cells were passaged in T-75 flasks prior to use in the antiviral assay. On the day preceding the assay, the cells were split 1:2 to assure they were in an exponential growth phase at the time of infection. Total cell and viability quantification was performed using a hemocytometer and Trypan Blue dye exclusion. Cell viability was greater than 95% for the cells to be utilized in the assay. The cells were resuspended at 5×10^4 cells per ml in tissue culture medium and added to the drug containing microtiter plates in a volume of 50 μL.
(§2) Plate Format—Each plate contains cell control wells (cells only), virus control wells (cells plus virus), drug toxicity wells (cells plus drug only), drug colorimetric control wells (drug only) as well as experimental wells (drug plus cells plus virus). Samples were tested in triplicate with eleven half-log dilutions per compound.
(§3) Efficacy and Toxicity XTT—Following incubation at 37° C. in a 5% CO2 incubator, the test plates were stained with the tetrazolium dye XTT (2,3-bis(2-methoxy-4-nitro-5-sulfophenyl)-5-[(phenylamino)carbonyl]-2H-tetrazolium hydroxide). XTT-tetrazolium is metabolized by the mitochondrial enzymes of metabolically active cells to a soluble formazan product, allowing rapid quantitative analysis of the inhibition of HIV induced cell killing by anti-HIV test substances. XTT solution was prepared daily as a stock of 1 mg/mL in RPMI1640. Phenazine methosulfate (PMS) solution was prepared at 0.15 mg/mL in PBS and stored in the dark at −20° C. XTT/PMS stock was prepared immediately before use by adding 40 μL of PMS per ml of XTT solution. Fifty microliters of XTT/PMS was added to each well of the plate and the plate was re-incubated for 4 hours at 37° C. Plates were sealed with adhesive plate sealers and shaken gently or inverted several times to mix the soluble fosmazan product and the plate was read spectrophotometrically at 450/650 nm with a Molecular Devices Vmax plate reader.
(§4) Data Analysis—Raw data was collected from the Softmax Pro 4.6 software and imported into a Excel XLFit4 spreadsheet for analysis by four parameter curve fit calculations. Both antiviral activity and toxicity are calculated.

[3] = test system: HIV-1RF; experiment: Anti-HIV-1 cytoprotection assay in CEM-SS cells; format: cell-based
Procedure: as §1, with “Cell viability was greater than 95% for the cells to be utilized in the assay.” left out
Virus Preparation—The virus used for the assay was the lymphocyte-tropic virus strain HIV-IRF. The virus was obtained from the NIH AIDS Research and Reference Reagent Program and stock virus pools were produced in CEM-SS cells. A pretitred aliquot of virus was removed from the freezer (−80° C.) and allowed to thaw slowly to room temperature in a biological safety cabinet.
as §2, §3
Anti-HIV-1 Cytopathic Effects Inhibition Assay Evaluations: Eight compounds were evaluated against the RF strain of HIV-1 in CEM-SS cells using a 12 concentration dose response curve.
as §4

[4] = in vitro; format: in vitro ADME; settings: human
Procedure: Each determination was performed in duplicate.
Vr is the volume of the receiver compartment in cm^3.
Vd is the volume of the donor compartment in cm^3.
A is the area of the cell monolayer (1.13 cm^2 for 12-well Transwell®).
CN is the nominal dosing concentration of the dosing solution in μM.
CA is the average of the nominal dosing concentration and the measured 120 minute donor concentration in μM.
Cr^final is the receiver concentration in μM at the end of the incubation period.
Cd^final is the concentration of the donor in μM at the end of the incubation period.

[5] = molecular target: Wild Type RT (Human immunodeficiency virus type 1 group M subtype B, UniProt P04585); experiment: HIV-1 Reverse Transcriptase Inhibition Assay; format: biochemical; settings: Wild Type RT IC50
Procedure: The following materials were removed from the freezer and were stored on wet ice (dGTP, ^32P, purified enzyme extract, rCdG, dGTP, DNA). Test compounds were evaluated at a high test of 100 μM diluted in dH2O and if the stock solution was turbid, 1:1000 Triton-X was added to the stock solution. Thirty microliters (30 μL) of each dilution was then transferred in duplicate to the appropriate well of a 96-well plate. The positive and negative control wells each received 30 μL of dH2O instead of the compound. A 2× buffer was prepared in the following manner: 125 μL 2M Tris pH 8.0, 250 μL 3M KCl, 80 μL 1 M MgC12, 10 μL 2 M DTT, 40 μL 25 U/mL rCdG, 100 μL 1 mM dGTP, 10 μL 800 Ci/mMol alpha ^32P:dG TP, and 4.4 mL dH2O. Fifty microliters (50 μL) of 2× buffer was added to every well of the plate. BSA was diluted 1:100 and Triton-X 1:1000 in dH2O and the enzyme was added to the mixture at a 1:400 dilution. Twenty microliters (20 μL) of the enzyme solution was added to all of the wells of the plate except the negative control wells. Distilled water was used instead of enzyme in these wells. The plate was incubated at 37° C. for 30 minutes. Following incubation, 10 μL of 10 mg/mL DNA (MB-grade fish sperm) was added to each well, followed by 150 μL of cold 10% TCA in each well. The plate was incubated at room temperature for approximately 15 minutes in order to allow for precipitation of the samples. Following the incubation the contents were transferred to the appropriate filter plate. The plate was placed on the vacuum manifold and pushed firmly to induce suction. Wells were rinsed with 200 μL of cold TCA. Again, the plate was pushed down firmly and vacuum suction was applied. Once all of the liquid was aspirated from the filter plate, it was removed from the manifold and residual liquid was blotted from the bottom of the plastic base. The filtered wells were separated from the plastic base and the wells were blotted on clean, absorbent paper. The filtered wells were pushed into the cassette and a sheet of Millipore multiscreen tape was placed on the bottom of a Wallace Microbeta cassette covering all of the holes. Twenty microliters (20 μL) of Wallace Supermix Scintillant was added to each well and the top of the wells were covered with a sheet of the multiscreen tape. The plate was read on the Wallace MicroBeta counter to measure incorporated ^32P.

C[C@H]1O[C@@H](O[C@H]2[C@@H](O)C[C@H](O[C@H]3[C@@H](O)C[C@H](O[C@H]4CC[C@@]5(C)[C@H](CC[C@@H]6[C@@H]5C[C@@H](O)[C@]5(C)[C@@H](C7=CC(=O)OC7)CC[C@]65O)C4)O[C@@H]3C)O[C@@H]2C)C[C@H](O)[C@@H]1O [Digoxin]
Papp A→B ([1]; Test 1, Passage Number 65): 0.47 ×10⁻⁶ cm/s
Papp A→B ([1]; Test 2, Passage Number 59): 0.65 ×10⁻⁶ cm/s
Papp A→B ([1]; Test 2, Passage Number 67): 0.75 ×10⁻⁶ cm/s
Papp B→A ([1]; Test 1, Passage Number 65): 11 ×10⁻⁶ cm/s
Papp B→A ([1]; Test 2, Passage Number 59): 16.9 ×10⁻⁶ cm/s
Papp B→A ([1]; Test 2, Passage Number 67): 13.4 ×10⁻⁶ cm/s
efflux ratio ([1]; Test 1, Passage Number 65): 23
efflux ratio ([1]; Test 2, Passage Number 59): 26
efflux ratio ([1]; Test 2, Passage Number 67): 18

COCCOCCOCCNc1ccc2[nH]c(C(=O)N3CCN(c4ncccc4NC(C)C)CC3)cc2c1 [5-mPEG3-NH-Delavirdine]
CC50 [2]: 34900 nM
Therapeutic Index ([3]; CEM-SS/HIV-1RF): 212.67
EC50 ([3]; Human immunodeficiency virus 1, CEM-SS, CEM-SS cells, XTT, read-out: CEM-SS/HIV-1RF EC50): 160 nM
Papp A→B at 2 hours, 10 μM ([4]; Caco-2, pH 7.4, Test 2, 10 μM, 2 hours, pH 7.4, read-out: Average Papp, A→B): 33.3 ×10⁻⁶ cm/s
Papp B→A at 2 hours, 10 μM ([4]; Caco-2, pH 7.4, Test 2, 10 μM, 2 hours, pH 7.4, read-out: Average Papp, B→A): 41.8 ×10⁻⁶ cm/s
recovery at 2 h, 10 μM ([4]; Caco-2, pH 7.4, Test 2, 10 μM, 2 hours, read-out: Recovery (%) A→B): 94%
recovery at 2 h, 10 μM ([4]; Caco-2, pH 7.4, Test 2, 10 μM, 2 hours, read-out: Recovery (%) B→A): 96%
efflux ratio at 2 hours, 10 μM ([4]; Caco-2, pH 7.4, Test 2, read-out: Efflux Ratio (B→A/A→B)): 1.3
IC50 [5]: 1000 nM

CC(C)NCC(O)COc1cccc2ccccc12 (stereo not shown) [Propranolol]
Papp ([1]; Caco-2, Papp): 20.8 ×10⁻⁶ cm/s
